{"source": "patent US20230338510A1", "about": "“NOVEL C[…] EPITOPE P[…] AND USE THEREOF” (SHANGHAI INSTITUTE OF MATERIA MEDICA, CHINESE ACADEMY OF …, priority 2020, published 2023)", "key": {"[1]": {"system": "binding of RBD to ACE2", "assay": "competitive ELISA: ability of antiserum to block the binding of RBD and ACE2", "type": "in vivo, cynomolgus monkeys"}, "[2]": {"target": "human ACE2 (Homo sapiens, UniProt Q9BYF1)", "sequence (Q9BYF1 18-805)": "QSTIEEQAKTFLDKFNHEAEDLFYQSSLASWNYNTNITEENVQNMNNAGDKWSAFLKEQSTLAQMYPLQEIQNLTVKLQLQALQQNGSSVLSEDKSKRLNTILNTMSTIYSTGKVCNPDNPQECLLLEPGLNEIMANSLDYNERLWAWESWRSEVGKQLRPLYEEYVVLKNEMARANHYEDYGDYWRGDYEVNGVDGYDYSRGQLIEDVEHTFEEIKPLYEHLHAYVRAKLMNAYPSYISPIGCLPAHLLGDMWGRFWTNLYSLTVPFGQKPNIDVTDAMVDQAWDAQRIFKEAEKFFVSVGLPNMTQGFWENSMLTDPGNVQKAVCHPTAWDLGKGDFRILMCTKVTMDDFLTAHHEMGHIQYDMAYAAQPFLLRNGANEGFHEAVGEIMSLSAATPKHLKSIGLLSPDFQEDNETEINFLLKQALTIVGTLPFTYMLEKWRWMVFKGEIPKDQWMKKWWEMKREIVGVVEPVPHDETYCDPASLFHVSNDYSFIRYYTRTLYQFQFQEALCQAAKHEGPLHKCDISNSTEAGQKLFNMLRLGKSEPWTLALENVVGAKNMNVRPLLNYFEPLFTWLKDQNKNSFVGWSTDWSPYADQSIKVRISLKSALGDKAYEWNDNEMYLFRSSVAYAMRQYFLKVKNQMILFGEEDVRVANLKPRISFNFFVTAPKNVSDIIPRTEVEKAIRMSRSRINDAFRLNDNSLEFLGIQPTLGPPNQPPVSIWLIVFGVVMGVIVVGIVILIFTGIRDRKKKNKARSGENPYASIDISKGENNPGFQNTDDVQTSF", "assay": "in vitro binding of biotin-labeled LP2 to ACE2 by ELISA", "conditions": "biotin-labeled polypeptide 1, 0.5 and 0.25 µg/mL, ACE2-coated plate; FIG. 10", "procedure": "In this example, LP2 was labeled with biotin, and its binding ability with human ACE2 was detected by ELISA.\nThe specific determination method is as follows: the ELISA plate was coated overnight with 10ug/mL ACE2 and blocked, then biotin-labeled polypeptides of different concentrations (1, 0.5 and 0.25 µg/mL) were added. After incubated at 37° C. for 1.5 hours, HRP-Streptavidin A diluted in 1:5000 was added, and incubated at 37° C. for 1 hour. The plate was washed, then TMB was added for color development, and the plate was read at 450 nm wavelength after termination."}, "[3]": {"system": "RBD", "type": "in vivo", "conditions": "cynomolgus monkeys, subcutaneous immunization with adjuvant, 14 days after the second immunization; FIG. 8"}}, "data": [{"sequence": "AKFVAAWTLKAAAGGGGYGFQPTNGVGYQPGGGGNYLYRLFRKSNLKPF [LP2]", "values": [{"measurement": "blocking effect of antiserum on the binding of RBD to ACE2", "setting": "[1]; antiserum at 8-64 times of dilution", "value": "significant blocking effect"}, {"measurement": "inhibition rate", "setting": "[1]; antiserum at 8 times of dilution", "value": "more than 60%"}, {"measurement": "inhibition rate", "setting": "[1]; antiserum at 16 times of dilution", "value": "more than 40%"}, {"measurement": "binding ability with ACE2", "setting": "[2]", "value": "strong binding ability"}, {"measurement": "titer of antibodies against RBD", "setting": "[3]", "value": "higher titer of antibodies against RBD was produced"}]}]}
